# Legend:
# SW480 cells [1] = assay: Cell cycle distribution (PI staining, flow cytometry); type: cell-based, human; conditions: SW480, 24 h
# Method: (§1) For the flow-cytometric determination of cell cycle distribution, CH1/PA-1 (8 × 10^4 cells/well) and SW480 (1.2 × 10^5 cells/well) cells were seeded into 12-well plates (CytoOne, tissue culture treated) in 1 mL supplemented MEM. In the first 24 h, the cells were allowed to settle and resume exponential growth. […] Gemcitabine (Sigma-Aldrich, 0.01 and 0.05 µM) and etoposide (Sigma-Aldrich, 0.25, 0.5 and 1 µM) were used as positive controls. After removal of the treatment medium, cells were washed with 1 mL PBS and trypsinized. Cells were collected in Eppendorf tubes and centrifuged (300 g, 3 min), and the supernatant was discarded. In the following step, cells were washed with 1 mL PBS and resuspended in 500 µL PI/HFS buffer (0.1% v/v Triton X-100, 0.1% w/v sodium citrate, in PBS) containing 25 µg/mL propidium iodide (PI, 1.0 mg/mL, Sigma-Aldrich). The staining was carried out overnight at 4 °C in the dark, and 200 µL of the cell suspension was loaded into 96-well round bottom plates (Falcon). Samples were measured with a Millipore Guava easyCyte 8HT flow cytometer with GuavaSoft™ software in the InCyte-modus, and 10,000 events/sample were detected. Data were analyzed with FlowJo software v 10.8.1 (Tree Star, Ashland, OR, USA) using Watson algorithm. Percentages of cells in the three cell cycle phases (G1/G0, S and G2/M) were calculated by integrating the resulting histograms of fluorescence signals (Figures S29 and S30). Experiments were repeated at least three times. For statistical evaluation, an unpaired t-test with Welch’s correction was performed by using GraphPad PRISM software.
# CH1/PA-1 cells = assay: as above; type: cell-based, human; conditions: CH1/PA-1, 24 h
# Method: as §1
# SW480 cells [2] = assay: Cellular ruthenium accumulation (ICP-MS); type: cell-based, human; conditions: SW480, 2 h incubation, 37 °C
# Method: SW480 cells were seeded at densities of 1.8 × 10^5 cells/well in 12-well plates (CytoOne, tissue culture treated) in 1 mL of supplemented MEM per well. (As CH1/PA-1 cells tend to detach during the required washing steps, cellular accumulation studies were performed only in SW480 cells). After 24 h, compounds dissolved in DMSO and diluted in MEM were added to the cells to final concentrations of 2 µM and 5 µM, and cells were incubated at 37 °C for 2 h. During incubation, the cell number was determined from three control wells of a plate seeded in parallel to the treatment plates. After the 2 h incubation, the medium was removed and all wells were washed with 3 × 1 mL PBS, and cells were lysed by adding 400 µL HNO3 per well for 1 h at room temperature. An amount of 300 µL of each lysate was added to 7.7 mL MilliQ water to get a total volume of 8 mL, and determination of the ruthenium content was carried out by ICP-MS. The measured amount of accumulated metal was normalized to the cell number and results were given in fg [Ru]/cell from at least three independent experiments. An Agilent 7800 ICP-MS instrument (Agilent Technologies, Tokyo, Japan) equipped with an Agilent SPS 4 autosampler (Agilent Technologies, Tokyo, Japan) was used to determine the ruthenium content. The ICP-MS parameters were tuned on a daily base to achieve high sensitivity. The ICP-MS was equipped with a MicroMist nebulizer with a sample uptake rate of ∼0.2 mL/min and standard nickel cones. The Agilent MassHunter software package (Workstation Software, Version C.01.04, 2018) was used for data evaluation. The instrumental parameters can be found in the supplementary information (Table S9).
# SW480 cells [3] = assay: Apoptosis assay (annexin V-FITC/PI, flow cytometry); conditions: SW480, 24 h; for early apoptotic cells / late apoptotic cells / necrotic cells / viable cells: mean ± SD
# Method: Cell death induction was quantitatively analyzed via flow cytometry using double staining with FITC-conjugated annexin V (eBioscience, San Diego, CA, USA) and propidium iodide (PI, 1.0 mg/mL, Sigma-Aldrich). SW480 cells were seeded into 24-well plates (7 × 10^4 cells/well) in 600 µL MEM per well and allowed to settle for 24 h. Afterward, cells were exposed to two or three different concentrations (0.1–100 µM) of the compounds (based on their cytotoxic activity) for 24 h. After treatment, the medium was collected, and cells were washed once with 37 °C warm PBS and harvested. Following trypsinization, the cell suspension was added to the pre-collected medium and cells were centrifuged (300 g, 3 min). The supernatant was removed, and the cell pellet was resuspended with 1.5 µL FITC-conjugated annexin V in 150 µL binding buffer (10 mM HEPES/NaOH pH 7.4, 140 mM NaCl and 2.5 mM CaCl2) and incubated at 37 °C for 15 min. An amount of 1 µL of propidium iodide (PI, Thermo Fisher) was added shortly before flow-cytometric analysis using a Guava easyCyte 8HT instrument (Merck Millipore, Burlington, MA, USA) with InCyte software. Results were quantified by using the FlowJo software (TreeStar). At least three independent experiments were conducted.
# SW480 cells [4] = assay: Colony formation assay; type: cell-based, human; conditions: SW480, 11 days, relative to untreated control
# Method: For the colony formation assay, SW480 cells were seeded at a density of 350 cells/2 mL into each well of 6-well plates (CytoOne, tissue culture treated) and left to adhere for 24 h. To determine the long-term effects of the test compounds, the cells were exposed to them for 11 days at 37 °C and 5% CO2. After incubation, the wells were gently washed with 1 mL cold PBS and the colonies were fixed with 1 mL cold (4 °C) 100% methanol (Thermo Fisher, Waltham, MA, USA) for 30 min at 4 °C and washed with 1 mL PBS again. The fixed colonies were stained with 1 mL of 0.5% w/v crystal violet (Sigma-Aldrich) in methanol for 2 min and the plates were washed under tap water. After drying the plates, images of the wells were captured, and colonies were counted with the colony counting function of Fusion Fx7 software (Vilber Lourmat, Collégien, France). Results were normalized to untreated controls. Data are averaged from at least three independent experiments.
smiles,measurement,setting,value
CC1=C([O-])C([O-])(n2cccn2)c2ccccc2C1=O.Cc1ccc(C(C)C)cc1.[Ru+2] (racemic) [Compound 1],Cells in G1/G0 phase,SW480 cells [1]; 0.039 µM,23.8 ± 6.1%
same,Cells in G2/M phase,SW480 cells [1]; 0.039 µM,37.2 ± 2.3%
same,Cells in S phase,SW480 cells [1]; 0.039 µM,40.0 ± 2.1%
same,Cells in G1/G0 phase,SW480 cells [1]; 0.078 µM,15.4 ± 1.2%
same,Cells in G2/M phase,SW480 cells [1]; 0.078 µM,34.5 ± 2.1%
same,Cells in S phase,SW480 cells [1]; 0.078 µM,53.4 ± 1.1%
same,Cells in G1/G0 phase,SW480 cells [1]; 0.16 µM,25.0 ± 8.2%
same,Cells in G2/M phase,SW480 cells [1]; 0.16 µM,22.5 ± 4.3%
same,Cells in S phase,SW480 cells [1]; 0.16 µM,56.2 ± 8.4%
same,Cells in G1/G0 phase,CH1/PA-1 cells; 50 µM,18.7 ± 1.7%
same,Cells in G2/M phase,CH1/PA-1 cells; 50 µM,48.2 ± 5.5%
same,Cells in S phase,CH1/PA-1 cells; 50 µM,39.2 ± 8.7%
same,Cells in G1/G0 phase,CH1/PA-1 cells; 100 µM,19.8 ± 2.1%
same,Cells in G2/M phase,CH1/PA-1 cells; 100 µM,40.9 ± 4.0%
same,Cells in S phase,CH1/PA-1 cells; 100 µM,45.8 ± 3.8%
same,Cells in G1/G0 phase,CH1/PA-1 cells; 150 µM,20.0 ± 1.3%
same,Cells in G2/M phase,CH1/PA-1 cells; 150 µM,31.0 ± 3.2%
same,Cells in S phase,CH1/PA-1 cells; 150 µM,52.9 ± 1.9%
same,Increase of S phase fraction relative to untreated control,CH1/PA-1 cells; concentration-dependent,up to 11%
same,Ru [102]/cell (cellular accumulation),SW480 cells [2]; 2 µM,97 ± 8 fg
same,Ru [102]/cell (cellular accumulation),SW480 cells [2]; 5 µM,299 ± 54 fg
same,early apoptotic cells,SW480 cells [3]; 0.1 µM,3.7 ± 3.1%
same,late apoptotic cells,SW480 cells [3]; 0.1 µM,3.6 ± 2.6%
same,necrotic cells,SW480 cells [3]; 0.1 µM,0.77 ± 0.33%
same,viable cells,SW480 cells [3]; 0.1 µM,92 ± 6%
same,early apoptotic cells,SW480 cells [3]; 1 µM,1.3 ± 0.5%
same,late apoptotic cells,SW480 cells [3]; 1 µM,4.9 ± 2.8%
same,necrotic cells,SW480 cells [3]; 1 µM,1.2 ± 0.8%
same,viable cells,SW480 cells [3]; 1 µM,93 ± 4%
same,early apoptotic cells,SW480 cells [3]; 10 µM,16 ± 1%
same,late apoptotic cells,SW480 cells [3]; 10 µM,64 ± 6%
same,necrotic cells,SW480 cells [3]; 10 µM,6.7 ± 3.1%
same,viable cells,SW480 cells [3]; 10 µM,13 ± 3%
same,Apoptosis / necrosis induction (in words),SW480 cells [3]; concentrations covering the IC50 range,induced apoptosis to a high extent
same,Number of colonies,SW480 cells [4]; 0.039 µM,18 ± 5%
same,Number of colonies,SW480 cells [4]; 0.078 µM,3.1 ± 0.8%
same,Number of colonies,SW480 cells [4]; 0.16 µM,0.26 ± 0.43%
CC1=C([O-])C([O-])(n2cccn2)c2ccccc2C1=O.Cc1ccccc1.[Ru+2] (racemic) [Compound 3],Cells in G1/G0 phase,SW480 cells [1]; 1.25 µM,28.4 ± 7.8%
same,Cells in G2/M phase,SW480 cells [1]; 1.25 µM,35.1 ± 1.8%
same,Cells in S phase,SW480 cells [1]; 1.25 µM,38.2 ± 7.1%
same,Cells in G1/G0 phase,SW480 cells [1]; 2.5 µM,17.6 ± 4.5%
same,Cells in G2/M phase,SW480 cells [1]; 2.5 µM,43.1 ± 7.6%
same,Cells in S phase,SW480 cells [1]; 2.5 µM,43.3 ± 7.4%
same,Cells in G1/G0 phase,SW480 cells [1]; 5 µM,20.4 ± 5.9%
same,Cells in G2/M phase,SW480 cells [1]; 5 µM,28.2 ± 5.6%
same,Cells in S phase,SW480 cells [1]; 5 µM,54.1 ± 3.2%
same,Cells in G1/G0 phase,CH1/PA-1 cells; 100 µM,25.8 ± 4.6%
same,Cells in G2/M phase,CH1/PA-1 cells; 100 µM,40.1 ± 2.7%
same,Cells in S phase,CH1/PA-1 cells; 100 µM,38.6 ± 1.5%
same,Cells in G1/G0 phase,CH1/PA-1 cells; 150 µM,23.1 ±7.0%
same,Cells in G2/M phase,CH1/PA-1 cells; 150 µM,36.9 ± 1.5%
same,Cells in S phase,CH1/PA-1 cells; 150 µM,40.8 ± 0.6%
same,Cells in G1/G0 phase,CH1/PA-1 cells; 200 µM,24.9 ± 5.8%
same,Cells in G2/M phase,CH1/PA-1 cells; 200 µM,40.3 ± 2.6%
same,Cells in S phase,CH1/PA-1 cells; 200 µM,36.4 ± 1.2%
same,Ru [102]/cell (cellular accumulation),SW480 cells [2]; 2 µM,15 ± 2 fg
same,Ru [102]/cell (cellular accumulation),SW480 cells [2]; 5 µM,33 ± 10 fg
same,early apoptotic cells,SW480 cells [3]; 1 µM,1.0 ± 0.7%
same,late apoptotic cells,SW480 cells [3]; 1 µM,2.1 ± 0.3%
same,necrotic cells,SW480 cells [3]; 1 µM,1.0 ± 0.5%
same,viable cells,SW480 cells [3]; 1 µM,96 ± 1%
same,early apoptotic cells,SW480 cells [3]; 10 µM,0.7 ± 0.3%
same,late apoptotic cells,SW480 cells [3]; 10 µM,2.1 ± 0.7%
same,necrotic cells,SW480 cells [3]; 10 µM,0.72 ± 0.49%
same,viable cells,SW480 cells [3]; 10 µM,97 ± 1%
same,Number of colonies,SW480 cells [4]; 1.25 µM,53 ± 8%
same,Number of colonies,SW480 cells [4]; 2.5 µM,23 ± 8%
same,Number of colonies,SW480 cells [4]; 5 µM,4.3 ± 3.7%
